This note sets out measurements from patent US9296723B2, “NAMPT inhibitors” (AbbVie Inc., priority 2012, dated 2016).

Assay [1] has as its target T1, NAMPT (Homo sapiens, UniProt P43490). Nature of the assay: Time-Resolved Fluorescence Resonance Energy Transfer (TR-FRET) Binding Assay of NAMPT. To be noted: 6.8 nM NAMPT, 200 nM probe, equilibrated 3 hours, no substrates. In a few lines:
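IC50s come from four-parameter logistic fits of control-normalized Em520/Em495 TR-FRET ratios (Ex 337 nm) against compound concentration. Before reading, enzyme, probe, antibody and compound equilibrated for 3 h at room temperature.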

In assay [2] the target is T1, NAMPT. Nature of the assay: TR-FRET Binding Assay of NAMPT with PRPP. To be noted: 2 nM NAMPT, 2 nM probe, 200 µM PRPP and 2.5 mM ATP, equilibrated 16 hours. An outline of the steps: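 Substrates present: PRPP at 200 µM and ATP at 2.5 mM, final, alongside 2 nM enzyme, 2 nM tracer and 1 nM terbium anti-His donor in 2% DMSO. A 16-hour equilibration preceded the time-resolved FRET read, allowing compounds to be enzymatically modified.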

In assay [3] the test system is PC3 cells. Nature of the assay: NAMPT Cell Proliferation Assay (Cell Titer Glo). The assay is classed as cell-based. To be noted: Homo sapiens, PC-3, 120 h, incubated 5 days, cell viability. In a few lines:
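Viability measured by Cell Titer Glo luminescence after 5-day exposure of attached PC3 cells to compound, dosed as 10-fold serial dilutions ([…]) in RPMI/10% FBS at 37 °C and 5% CO2. Percent inhibition fitted to sigmoidal dose-response curves for IC50.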

T1 sequence (P43490 whole entry): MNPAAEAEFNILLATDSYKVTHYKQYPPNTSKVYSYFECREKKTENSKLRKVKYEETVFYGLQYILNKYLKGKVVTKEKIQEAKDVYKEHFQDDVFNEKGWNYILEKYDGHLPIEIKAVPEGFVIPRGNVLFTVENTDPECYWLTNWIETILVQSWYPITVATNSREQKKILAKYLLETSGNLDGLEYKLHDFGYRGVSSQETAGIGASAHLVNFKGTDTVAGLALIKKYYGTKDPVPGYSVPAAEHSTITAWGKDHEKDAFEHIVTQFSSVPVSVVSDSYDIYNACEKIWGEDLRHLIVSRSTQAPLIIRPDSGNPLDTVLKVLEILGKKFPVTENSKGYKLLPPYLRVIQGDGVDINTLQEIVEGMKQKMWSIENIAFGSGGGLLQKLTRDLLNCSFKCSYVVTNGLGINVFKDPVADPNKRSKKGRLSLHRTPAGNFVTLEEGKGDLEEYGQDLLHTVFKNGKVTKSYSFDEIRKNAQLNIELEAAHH

In the case of `O=C(CC1CCOCC1)N1CCC(Oc2ccc(NC(=O)N3CCN(c4cccnc4)CC3)cc2)CC1` [Example 162, 4-(pyridin-3-yl)-N-(4-{[1-(tetrahydro-2H-pyran-4-ylacetyl)piperidin-4-yl]oxy}phenyl)piperazine-1-carboxamide], the results for the IC50 in assay [1], in assay [2] and in assay [3] were 357 nM, 0.574 nM and 269 nM, respectively.

With `CC(C)CCC(=O)N1CCC(c2ccc(NC(=O)N3CC(c4cccnc4)C3)cc2)CC1` [Example 166, N-{4-[1-(4-methylpentanoyl)piperidin-4-yl]phenyl}-3-(pyridin-3-yl)azetidine-1-carboxamide], the results for the IC50 in assay [1], in assay [2] and in assay [3] were 17.2 nM, 0.337 nM and 66.4 nM, respectively.

In the case of `O=C(Nc1ccc(C2CN(C(=O)C3CC3)C2)cc1)N1CC(c2cccnc2)C1` [Example 109, N-{4-[1-(cyclopropylcarbonyl)azetidin-3-yl]phenyl}-3-(pyridin-3-yl)azetidine-1-carboxamide], the figures for the IC50 in assay [1], in assay [2] and in assay [3] were 306 nM, 0.596 nM and 110 nM, respectively.

In the case of `CC(C)(O)C(=O)N1CCC(Oc2ccc(NC(=O)N3CC(c4cccnc4)C3)cc2)CC1` [Example 7, N-(4-{[1-(2-hydroxy-2-methylpropanoyl)piperidin-4-yl]oxy}phenyl)-3-(pyridin-3-yl)azetidine-1-carboxamide], the IC50 in assay [1] was 57.8 nM; in assay [2], 0.344 nM; in assay [3], 38.5 nM.

Consider `O=C(Nc1ccc(OC2CN(C(=O)C3CCCC3)C2)cc1)N1CC(c2cccnc2)C1` [Example 142, N-(4-{[1-(cyclopentylcarbonyl)azetidin-3-yl]oxy}phenyl)-3-(pyridin-3-yl)azetidine-1-carboxamide], for which the IC50 worked out at 24.6 nM in assay [1], 0.339 nM in assay [2] and 7.91 nM in assay [3].

As for `O=C(CN1CCCC1)N1CCC(c2ccc(NC(=O)N3CC(c4cccnc4)C3)cc2)CC1` [Example 194, 3-(pyridin-3-yl)-N-{4-[1-(pyrrolidin-1-ylacetyl)piperidin-4-yl]phenyl}azetidine-1-carboxamide], the IC50 in assay [1] came to 248 nM; in assay [2], 0.592 nM; in assay [3], 690 nM.

As to `O=C(CC(F)(F)F)N1CCC(c2ccc(NC(=O)N3CC(c4cccnc4)C3)cc2)C1` (stereo not drawn) [Example 72, 3-(pyridin-3-yl)-N-{4-[1-(3,3,3-trifluoropropanoyl)pyrrolidin-3-yl]phenyl}azetidine-1-carboxamide], the IC50 stood at 65.6 nM in assay [1], 0.211 nM in assay [2] and 77.7 nM in assay [3].

For the compound `CC(C)C(C)C(=O)N1CC[C@@H](Oc2ccc(NC(=O)N3CC(c4cccnc4)C3)cc2)C1` (stereo partly drawn) [Example 335, N-(4-{[(3R)-1-(2,3-dimethylbutanoyl)pyrrolidin-3-yl]oxy}phenyl)-3-(pyridin-3-yl)azetidine-1-carboxamide], the results for the IC50 in assay [1], in assay [2] and in assay [3] were 45.7 nM, 0.495 nM and 15.8 nM, respectively.

Regarding `CSCCC(=O)N1CC=C(c2ccc(NC(=O)N3CC(c4cccnc4)C3)cc2)CC1` [Example 24, N-(4-{1-[3-(methylsulfanyl)propanoyl]-1,2,3,6-tetrahydropyridin-4-yl}phenyl)-3-(pyridin-3-yl)azetidine-1-carboxamide], the results for the IC50 in assay [1], in assay [2] and in assay [3] were 170 nM, 0.988 nM and 113 nM, respectively.

On to `O=C(CC1CCCCC1)N1CCC(c2ccc(NC(=O)N3CC(c4cccnc4)C3)cc2)C1` (stereo not drawn) [Example 278, N-{4-[1-(cyclohexylacetyl)pyrrolidin-3-yl]phenyl}-3-(pyridin-3-yl)azetidine-1-carboxamide], for which the IC50 stood at 19.7 nM in assay [1], 0.213 nM in assay [2] and 30.6 nM in assay [3].

Regarding `O=C(Nc1ccc(OC2CCN(C(=O)C3CC3)CC2)cc1)N1CC(c2cccnc2)C1` [Example 47, N-(4-{[1-(cyclopropylcarbonyl)piperidin-4-yl]oxy}phenyl)-3-(pyridin-3-yl)azetidine-1-carboxamide], the IC50 came out at 30.3 nM in assay [1], 0.268 nM in assay [2] and 64 nM in assay [3].

As for `CCCCC(=O)N1CCC(c2ccc(NC(=O)N3CC(c4cccnc4)C3)cc2)CC1` [Example 163, N-[4-(1-pentanoylpiperidin-4-yl)phenyl]-3-(pyridin-3-yl)azetidine-1-carboxamide], the IC50 in assay [1] stood at 7.23 nM; in assay [2] it was 0.295 nM; in assay [3] it was 34.4 nM.

On to `CCC(C)CC(=O)N1CC(Oc2ccc(NC(=O)N3CC(c4cccnc4)C3)cc2)C1` (stereo not drawn) [Example 121, N-(4-{[1-(3-methylpentanoyl)azetidin-3-yl]oxy}phenyl)-3-(pyridin-3-yl)azetidine-1-carboxamide], for which the IC50 in assay [1] stood at 18.6 nM; in assay [2], 0.497 nM; in assay [3], 7.73 nM.

With `O=C(Nc1ccc(O[C@@H]2CCN(C(=O)c3ccsc3)C2)cc1)N1CC(c2cccnc2)C1` [Example 308, 3-(pyridin-3-yl)-N-(4-{[(3R)-1-(thiophen-3-ylcarbonyl)pyrrolidin-3-yl]oxy}phenyl)azetidine-1-carboxamide], the IC50 in assay [1] is 24.2 nM; in assay [2], 0.293 nM; in assay [3] it was 9.61 nM.

Regarding `CSCC(=O)N1CC=C(c2ccc(NC(=O)N3CC(c4cccnc4)C3)cc2)CC1` [Example 21, N-(4-{1-[(methylsulfanyl)acetyl]-1,2,3,6-tetrahydropyridin-4-yl}phenyl)-3-(pyridin-3-yl)azetidine-1-carboxamide], the IC50 in assay [1] was 32.5 nM; in assay [2], 0.381 nM; in assay [3], 33.7 nM.

Turning to `CC(=O)C(=O)N1CCC(c2ccc(NC(=O)N3CC(c4cccnc4)C3)cc2)C1` (stereo not drawn) [Example 291, N-{4-[1-(2-oxopropanoyl)pyrrolidin-3-yl]phenyl}-3-(pyridin-3-yl)azetidine-1-carboxamide], the values for the IC50 in assay [1], in assay [2] and in assay [3] were 25.8 nM, 0.207 nM and 150 nM, respectively.

With `O=C(CCC(F)(F)F)N1CC[C@@H](Oc2ccc(NC(=O)N3CC(c4cccnc4)C3)cc2)C1` [Example 311, 3-(pyridin-3-yl)-N-(4-{[(3R)-1-(4,4,4-trifluorobutanoyl)pyrrolidin-3-yl]oxy}phenyl)azetidine-1-carboxamide], the figures for the IC50 in assay [1], in assay [2] and in assay [3] were 144 nM, 0.592 nM and 47.1 nM, respectively.
